“And” between values parts separate entries of the source, which are not always exact repeats. Identical values can stand only once.
Columns and labels:
[1] = system: Corn; test: Preemergent injury rating, corn; type: in vivo; set-up: key: injury rating scale on which 4 = death
Method: (§1) Various of the compounds to be employed as active agent in accordance with the present invention were evaluated for preemergent application to various species of plants. In this evaluation, a soil was prepared consisting of one part masonry sand and one part shredded top soil blended together in a cement mixer. One gallon of this soil was placed in a 25 × 35 cm. galvanized flat and was patted down with a bench brush until level. A three-row marker was used to make 21/2 cm. deep furrows in approximately two-fifths of the flat. Crop seeds consisting of four kernels of corn, five cotton seeds and five soybean seeds were placed in these furrows. A four-row template was then placed on the remaining soil and the indicated approximate numbers of each of the following seeds were planted, one species to each section: foxtail (millet), 80-100 seeds; velvetleaf (40-50 seeds); rough pigweed (150-250 seeds); and large crabgrass (100-150 seeds).
(§2) Sufficient soil was added to cover the entire flat. Thus, the weed seeds were covered to a depth of about 6 mm. and the crop seeds were covered to a depth of about 3 cm.
(§3) In assaying the effect of the composition as preemergent herbicides, a flat prepared as above, taken either on the day of planting or on the next day, was placed in a chamber equipped with a turntable and an air exhaust. The herbicidal composition, either a spray-type emulsion or a wettable powder, was applied to the flat with a modified DeVilbiss atomizer hooked to an air source. Twelve and one-half milliliters of the composition under test were applied to each flat either on the day of planting or the succeeding day. Injury ratings and observations as to type of injury were made eleven to twelve days after treatment. The injury rating scale used was as follows:
(§4) 4--death When more than one determination was carried out at a given rate, an average value was calculated for the injury rating. Each compound evaluated was formulated as a spray by one of the following procedures. In one method the particular compound was wetted by grinding in a mortar with one part of polyoxyethylene sorbitan monolaurate. Five hundred parts of water were added slowly to the resultant creamy paste to give an aqueous dispersion with a surfactant concentration of 0.2 percent. This dispersion was entirely satisfactory for spray application. In a second procedure the compound was dissolved in one volume of acetone, and the acetone solution was diluted with nineteen volumes of water containing 0.1 percent of polyoxyethylene sorbitan monolaurate.
(§5) In the following table setting forth the results of the evaluation, column 1 gives the name of the compound under test; column 2, the rate in pounds per acre at which the compound was applied to the test flat; and the remaining columns, the injury to the particular plant seeds or seedlings as measured by the foregoing scale.

[2] = system: Jimsonweed; test: General herbicidal effect alone/in combination, jimsonweed; type: in vivo; set-up: key: 0-10 scale: 0 = no injury, 10 = death; details: alone
Method: as §1, §2, §3, §4
(§6) 6-Chloro-1-hydroxy-2-(trifluoromethyl)-1H-imidazo(4,5-b)pyridine was evaluated in combination with 2-chloro-4-ethylamino-6-isopropylamino-s-triazine and separately in combination with 2-chloro-2',6'-diethyl-N-(methoxymethyl)acetanilide for the control of plants. The evaluations were conducted as described in Examples 49-52, except that the rates of compound differed and the species were different. General herbicidal effect was rated on a scale of 0-10, with 0 = no injury and 10 = death. Observations were also made for the following other specific phytotoxic effects.

[3] = system: Rice; test: General herbicidal effect alone/in combination, rice; type: in vivo; set-up: key: 0-10 scale: 0 = no injury, 10 = death; details: alone
Method: as §1, §2, §3, §4, §6

[4] = system: Crabgrass; test: Preemergent injury rating, crabgrass; type: in vivo, large crabgrass; set-up: key: injury rating scale on which 4 = death
Method: as §1, §2, §3, §4, §5

[5] = system: Foxtail; test: Preemergent injury rating, foxtail; type: in vivo, foxtail (millet); set-up: key: injury rating scale on which 4 = death
Method: as §1, §2, §3, §4, §5

[6] = system: Velvet Leaf; test: Preemergent injury rating, velvetleaf; type: in vivo; set-up: key: injury rating scale on which 4 = death
Method: as §1, §2, §3, §4, §5

[7] = system: Corn; test: General herbicidal effect alone/in combination, corn (second Corn column); type: in vivo; set-up: key: 0-10 scale: 0 = no injury, 10 = death; details: alone
Method: as §1, §2, §3, §4, §6

[8] = system: Ragweed; test: General herbicidal effect alone/in combination, ragweed; type: in vivo; set-up: key: 0-10 scale: 0 = no injury, 10 = death; details: alone
Method: as §1, §2, §3, §4, §6

[9] = system: Pigweed; test: General herbicidal effect alone/in combination, pigweed; type: in vivo; set-up: key: 0-10 scale: 0 = no injury, 10 = death; details: alone
Method: as §1, §2, §3, §4, §6

[10] = system: Soybean; test: Preemergent injury rating, soybean; type: in vivo; set-up: key: injury rating scale on which 4 = death
Method: as §1, §2, §3, §4, §5

[11] = system: Pigweed; test: Preemergent injury rating, pigweed; type: in vivo, rough pigweed; set-up: key: injury rating scale on which 4 = death
Method: as §1, §2, §3, §4, §5

[12] = system: Foxtail Millet; test: General herbicidal effect alone/in combination, foxtail millet; type: in vivo; set-up: key: 0-10 scale: 0 = no injury, 10 = death; details: alone
Method: as §1, §2, §3, §4, §6

[13] = system: Velvet Leaf; test: General herbicidal effect alone/in combination, velvetleaf; type: in vivo; set-up: key: 0-10 scale: 0 = no injury, 10 = death; details: alone
Method: as §1, §2, §3, §4, §6

[14] = system: Cotton; test: Preemergent injury rating, cotton; type: in vivo; set-up: key: injury rating scale on which 4 = death
Method: as §1, §2, §3, §4, §5

[15] = system: Lambs Quarter; test: General herbicidal effect alone/in combination, lambsquarter; type: in vivo; set-up: key: 0-10 scale: 0 = no injury, 10 = death; details: alone, listed as A
Method: as §1, §2, §3, §4, §6

[16] = system: Sorghum; test: General herbicidal effect alone/in combination, sorghum; type: in vivo; set-up: key: 0-10 scale: 0 = no injury, 10 = death; details: alone
Method: as §1, §2, §3, §4, §6

[17] = system: Large Crabgrass; test: General herbicidal effect alone/in combination, large crabgrass; type: in vivo; set-up: key: 0-10 scale: 0 = no injury, 10 = death; details: alone, 1.0 lbs/A; listed as A
Method: as §1, §2, §3, §4, §6

[18] = system: Corn; test: General herbicidal effect alone/in combination, corn (first Corn column); type: in vivo; set-up: key: 0-10 scale: 0 = no injury, 10 = death; details: alone
Method: as §1, §2, §3, §4, §6

[19] = system: Barnyard Grass; test: General herbicidal effect alone/in combination, barnyard grass; type: in vivo; set-up: key: 0-10 scale: 0 = no injury, 10 = death; details: alone
Method: as §1, §2, §3, §4, §6

[20] = system: Morning glory; test: General herbicidal effect alone/in combination, morning glory; type: in vivo; set-up: key: 0-10 scale: 0 = no injury, 10 = death; details: alone
Method: as §1, §2, §3, §4, §6

[21] = system: Foxtail; test: Postemergent injury rating, foxtail; type: in vivo, foxtail (millet); set-up: key: injury rating scale, 4 = death
Method: as §1, §2, §3, §4
(§7) Representative compounds of the present invention were evaluated for postemergent application to plants including corn and several weed species. The evaluation was carried out in accordance with the procedures of Examples 49-52 except that the test solutions were applied about 9-12 days after the preparation and seeding of the flats.

[22] = system: Corn; test: Postemergent injury rating, corn; type: in vivo; set-up: key: injury rating scale, 4 = death
Method: as §1, §2, §3, §4, §7

[23] = system: Crabgrass; test: Postemergent injury rating, crabgrass; type: in vivo, large crabgrass; set-up: key: injury rating scale, 4 = death
Method: as §1, §2, §3, §4, §7

[24] = system: Pigweed; test: Postemergent injury rating, pigweed; type: in vivo, rough pigweed; set-up: key: injury rating scale, 4 = death
Method: as §1, §2, §3, §4, §7

## On1c(C(F)(F)F)nc2ncc(Cl)cc21 [6-chloro-1-hydroxy-2-(trifluoromethyl)-1H-imidazo(4,5-b)pyridine]
[1]; 1 lbs/acre
  Injury Rating, Corn: 0
[1]; 2 lbs/acre
  Injury Rating, Corn: 0
[1]; 4 lbs/acre
  Injury Rating, Corn: 1
[1]; 8 lbs/acre
  Injury Rating, Corn: 1
[2]; 0.25 lbs/A, listed as A
  herbicidal effect, Jimsonweed: 4B and 2B
[2]; 0.5 lbs/A, listed as A
  herbicidal effect, Jimsonweed: 8BS and 5BS
[2]; 1.0 lbs/A
  herbicidal effect, Jimsonweed: 9BS
[2]; 2.0 lbs/A
  herbicidal effect, Jimsonweed: 9BS
[3]; 0.25 lbs/A
  herbicidal effect, Rice: 0
[3]; 0.5 lbs/A
  herbicidal effect, Rice: 3B
[4]; 1 lbs/acre
  Injury Rating, Crabgrass: 4
[4]; 2 lbs/acre
  Injury Rating, Crabgrass: 3
[4]; 4 lbs/acre
  Injury Rating, Crabgrass: 4
[4]; 8 lbs/acre
  Injury Rating, Crabgrass: 4
[5]; 1 lbs/acre
  Injury Rating, Foxtail: 3
[5]; 2 lbs/acre
  Injury Rating, Foxtail: 3
[5]; 4 lbs/acre
  Injury Rating, Foxtail: 3
[5]; 8 lbs/acre
  Injury Rating, Foxtail: 3
[6]; 1 lbs/acre
  Injury Rating, Velvet Leaf: 2
[6]; 2 lbs/acre
  Injury Rating, Velvet Leaf: 4
[6]; 4 lbs/acre
  Injury Rating, Velvet Leaf: 4
[6]; 8 lbs/acre
  Injury Rating, Velvet Leaf: 3
[7]; 0.25 lbs/A
  herbicidal effect, Corn: 0
[7]; 0.5 lbs/A
  herbicidal effect, Corn: 0
[7]; 1.0 lbs/A
  herbicidal effect, Corn: 0
[8]; 0.25 lbs/A, listed as A
  herbicidal effect, Ragweed: 2S and 3S
[8]; 1.0 lbs/A
  herbicidal effect, Ragweed: 8BS
[9]; 0.25 lbs/A
  herbicidal effect, Pigweed: 0
[9]; 0.5 lbs/A, listed as A
  herbicidal effect, Pigweed: 2S and 3S
[10]; 1 lbs/acre
  Injury Rating, Soybean: 0
[10]; 2 lbs/acre
  Injury Rating, Soybean: 0
[10]; 4 lbs/acre
  Injury Rating, Soybean: 0
[10]; 8 lbs/acre
  Injury Rating, Soybean: 1
[11]; 1 lbs/acre
  Injury Rating, Pigweed: 4
[11]; 2 lbs/acre
  Injury Rating, Pigweed: 4
[11]; 4 lbs/acre
  Injury Rating, Pigweed: 4
[11]; 8 lbs/acre
  Injury Rating, Pigweed: 4
[12]; 0.25 lbs/A
  herbicidal effect, Foxtail Millet: 0
[12]; 0.5 lbs/A
  herbicidal effect, Foxtail Millet: 2S
[12]; 2.0 lbs/A
  herbicidal effect, Foxtail Millet: 10D
[13]; 0.25 lbs/A
  herbicidal effect, Velvet leaf: 0
[13]; 0.5 lbs/A, listed as A
  herbicidal effect, Velvet leaf: 2S and 3S
[14]; 1 lbs/acre
  Injury Rating, Cotton: 0
[14]; 2 lbs/acre
  Injury Rating, Cotton: 0
[14]; 4 lbs/acre
  Injury Rating, Cotton: 0
[14]; 8 lbs/acre
  Injury Rating, Cotton: 2
[15]; 1.0 lbs/A
  herbicidal effect, Lambs Quarter: 9SB and 6SB
[15]; 2.0 lbs/A
  herbicidal effect, Lambs Quarter: 9BS and 8BS
[16]; 0.25 lbs/A
  herbicidal effect, Sorghum: 0
[16]; 1.0 lbs/A
  herbicidal effect, Sorghum: 8BS
[16]; 2.0 lbs/A
  herbicidal effect, Sorghum: 10D
[17]
  herbicidal effect, Large Crabgrass: 3S and 2S
[18]; 0.25 lbs/A
  herbicidal effect, Corn: 0
[18]; 0.5 lbs/A
  herbicidal effect, Corn: 0
[18]; 1.0 lbs/A
  herbicidal effect, Corn: 0
[19]; 0.25 lbs/A
  herbicidal effect, Barnyard Grass: 0
[19]; 1.0 lbs/A, listed as A
  herbicidal effect, Barnyard Grass: 3S and 2S
[19]; 2.0 lbs/A
  herbicidal effect, Barnyard Grass: 9BS
[20]; 0.5 lbs/A
  herbicidal effect, Morning glory: 10D
[20]; 2.0 lbs/A
  herbicidal effect, Morning glory: 10D

## On1c(C(F)(F)F)nc2nccc(Cl)c21 [7-chloro-1-hydroxy-2-(trifluoromethyl)-1H-imidazo(4,5-b)pyridine]
[21]; 4 lbs/acre
  Injury Rating, Foxtail: 1
[21]; 8 lbs/acre
  Injury Rating, Foxtail: 3
[22]; 4 lbs/acre
  Injury Rating, Corn: 0
[22]; 8 lbs/acre
  Injury Rating, Corn: 1
[23]; 4 lbs/acre
  Injury Rating, Crabgrass: 1
[23]; 8 lbs/acre
  Injury Rating, Crabgrass: 2
[24]; 4 lbs/acre
  Injury Rating, Pigweed: 3
[24]; 8 lbs/acre
  Injury Rating, Pigweed: 3
